From US12173330B2, “Method for producing hydroxy-L-pipecolic acid” (API CORPORATION, priority 2015, dated 2024)
Where two headings read alike, the source gives them in different places.

Tests used:
[1] = molecular target: Segniliparus rugosus ATCC BAA-974 L-pipecolic acid cis-5-hydroxylase SruPH, SEQ ID NO: 4 (Segniliparus rugosus, UniProt E5XT07); conditions: for Vmax: 20 mmol/L 2-oxoglutaric acid, 30° C.; for kcat: calculated from Vmax and molecular weight
[2] = molecular target: Colletotrichum gloeosporioides Nara qc5 L-pipecolic acid trans-4-hydroxylase CgPH, SEQ ID NO: 12 (Colletotrichum fructicola, UniProt L2G7W2)
[3] = molecular target: Gibberella zeae PH-1 L-pipecolic acid trans-4-hydroxylase GzPH, SEQ ID NO: 16 (Fusarium graminearum, UniProt I1RHG1)
[4] = molecular target: Sinorhizobium meliloti 1021 L-proline cis-4-hydroxylase SmPH, SEQ ID NO: 10 (Sinorhizobium meliloti, UniProt Q92LF6); assay type: biochemical; conditions: for kcat: calculated from Vmax and molecular weight
[5] = molecular target: T1, Xenorhabdus doucetiae FRM16 L-proline cis-4-hydroxylase XdPH, SEQ ID NO: 8 (Xenorhabdus doucetiae, UniProt A0A068QPC1); assay type: biochemical; conditions: for kcat: calculated from Vmax and molecular weight
T1 sequence (A0A068QPC1 1-294): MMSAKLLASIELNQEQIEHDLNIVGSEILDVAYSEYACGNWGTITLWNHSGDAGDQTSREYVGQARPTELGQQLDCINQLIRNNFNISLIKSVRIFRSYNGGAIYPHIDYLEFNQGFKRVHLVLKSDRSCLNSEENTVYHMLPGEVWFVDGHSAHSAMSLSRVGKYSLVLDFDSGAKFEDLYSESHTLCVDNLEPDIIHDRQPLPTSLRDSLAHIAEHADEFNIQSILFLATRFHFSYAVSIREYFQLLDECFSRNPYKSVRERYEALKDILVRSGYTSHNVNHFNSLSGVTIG

[6] = test system: Kordia jejudonensis amino acid hydroxylase KjPH, SEQ ID NO: 18; assay type: biochemical; conditions: for Km / Vmax: 20 mmol/L 2-oxoglutaric acid, 30° C.; for kcat: calculated from Vmax and molecular weight
[7] = test system: Micromonospora chokoriensis amino acid hydroxylase McPH (L-pipecolic acid 5-hydroxylase), wild type, SEQ ID NO: 2; assay type: biochemical
[8] = molecular target: T2, Catenulispora acidiphila NBRC102108 L-proline cis-4-hydroxylase CaPH, SEQ ID NO: 6 (Catenulispora acidiphila, UniProt C7Q927); assay type: biochemical; conditions: substrate: L-proline; calculated from Vmax and molecular weight
T2 sequence (C7Q927 1-290): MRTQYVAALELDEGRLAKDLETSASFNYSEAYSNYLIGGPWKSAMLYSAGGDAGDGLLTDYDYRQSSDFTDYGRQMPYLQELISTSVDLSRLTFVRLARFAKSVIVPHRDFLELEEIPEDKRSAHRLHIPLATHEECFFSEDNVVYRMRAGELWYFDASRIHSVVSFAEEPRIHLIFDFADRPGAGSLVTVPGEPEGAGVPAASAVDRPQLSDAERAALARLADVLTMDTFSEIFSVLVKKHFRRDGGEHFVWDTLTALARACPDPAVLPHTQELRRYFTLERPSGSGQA

[9] = substrate: L-pipecolic acid, 20 mmol/L 2-oxoglutaric acid, 30° C.
[10] = substrate: L-pipecolic acid, calculated from Vmax and molecular weight
[11] = substrate: L-proline, 20 mmol/L 2-oxoglutaric acid, 30° C.

## O=C(O)[C@@H]1CCCCN1 [L-pipecolic acid]
[1]; substrate: L-pipecolic acid
  Vmax: 0.05 U/mg-protein
  kcat: 0.03
[2]; [9]
  Vmax: 70.42 U/mg-protein
[2]; [10]
  kcat: 43.80
[3]; [9]
  Vmax: 114.94 U/mg-protein
[3]; [10]
  kcat: 72.48
[4]; substrate: L-pipecolic acid
  kcat: 0.02
[5]; substrate: L-pipecolic acid
  kcat: 0.64
[6]; substrate: L-pipecolic acid
  Km: 490 µM
  Vmax: 0.30 U/mg-protein
  kcat: 0.16
[7]; [9]
  Km: 240 µM
  Vmax: 0.06 U/mg-protein
[7]; [10]
  kcat: 0.03

## O=C(O)[C@@H]1CCCN1 [L-proline]
[8]
  kcat: 0.01
[1]; kcat/Km ratio
  catalytic reaction efficiency for L-proline relative to that for L-pipecolic acid: 754%
[1]; substrate: L-proline
  Vmax: 0.13 U/mg-protein
  kcat: 0.07
[2]; kcat/Km ratio
  catalytic reaction efficiency for L-proline relative to that for L-pipecolic acid: 0
[3]; kcat/Km ratio
  catalytic reaction efficiency for L-proline relative to that for L-pipecolic acid: 0
[4]; kcat/Km ratio
  catalytic reaction efficiency for L-proline relative to that for L-pipecolic acid: 114%
[4]; [11]
  Vmax: 0.06 U/mg-protein
[4]; substrate: L-proline
  kcat: 0.03
[5]; kcat/Km ratio
  catalytic reaction efficiency for L-proline relative to that for L-pipecolic acid: 119%
[5]; [11]
  Vmax: 1.44 U/mg-protein
[5]; substrate: L-proline
  kcat: 0.80
[6]; kcat/Km ratio
  catalytic reaction efficiency for L-proline relative to that for L-pipecolic acid: 115%
[6]; substrate: L-proline
  Km: 480 µM
  Vmax: 0.34 U/mg-protein
  kcat: 0.18
[7]; kcat/Km ratio
  catalytic reaction efficiency for L-proline relative to that for L-pipecolic acid: 0
